Among the data in patent US20240270762A1, “PENICILLIN-BINDING PROTEIN INHIBITORS” (priority 2021, published 2024) are MIC and IC50 values, retold here.

The structures appear in SMILES notation. Values after ≈ are worked out from the molar mass of the structure shown. Bounds are passed on as bounds.

One assay concerns P. aeruginosa CDC-0054. The assay is described as follows: microbe, parasite or virus in culture. Type of assay: cell-based. The following applies: Pseudomonas aeruginosa, CDC0054, read-out: Minimum inhibitory concentration, P. aeruginosa CDC-0054.
In the next assay the test system is A. baumannii 1258916. The assay is described as follows: microbe, parasite or virus in culture. Type of assay: cell-based, Acinetobacter baumannii. The conditions noted are these: Acinetobacter baumannii, 1258916, read-out: MIC, A. baumannii 1258916.
The next assay deals with A. baumannii CDC-0045. The assay is described as follows: microbe, parasite or virus in culture. Type of assay: cell-based. The conditions noted are these: Acinetobacter baumannii, CDC0045, read-out: MIC, A. baumannii CDC-0045.
Assay [1] has as its target T1, PBP1a from Acinetobacter baumannii (ATCC 19606) (Acinetobacter baumannii, UniProt A0ABX6CK30).
T1 sequence (A0ABX6CK30 1-851): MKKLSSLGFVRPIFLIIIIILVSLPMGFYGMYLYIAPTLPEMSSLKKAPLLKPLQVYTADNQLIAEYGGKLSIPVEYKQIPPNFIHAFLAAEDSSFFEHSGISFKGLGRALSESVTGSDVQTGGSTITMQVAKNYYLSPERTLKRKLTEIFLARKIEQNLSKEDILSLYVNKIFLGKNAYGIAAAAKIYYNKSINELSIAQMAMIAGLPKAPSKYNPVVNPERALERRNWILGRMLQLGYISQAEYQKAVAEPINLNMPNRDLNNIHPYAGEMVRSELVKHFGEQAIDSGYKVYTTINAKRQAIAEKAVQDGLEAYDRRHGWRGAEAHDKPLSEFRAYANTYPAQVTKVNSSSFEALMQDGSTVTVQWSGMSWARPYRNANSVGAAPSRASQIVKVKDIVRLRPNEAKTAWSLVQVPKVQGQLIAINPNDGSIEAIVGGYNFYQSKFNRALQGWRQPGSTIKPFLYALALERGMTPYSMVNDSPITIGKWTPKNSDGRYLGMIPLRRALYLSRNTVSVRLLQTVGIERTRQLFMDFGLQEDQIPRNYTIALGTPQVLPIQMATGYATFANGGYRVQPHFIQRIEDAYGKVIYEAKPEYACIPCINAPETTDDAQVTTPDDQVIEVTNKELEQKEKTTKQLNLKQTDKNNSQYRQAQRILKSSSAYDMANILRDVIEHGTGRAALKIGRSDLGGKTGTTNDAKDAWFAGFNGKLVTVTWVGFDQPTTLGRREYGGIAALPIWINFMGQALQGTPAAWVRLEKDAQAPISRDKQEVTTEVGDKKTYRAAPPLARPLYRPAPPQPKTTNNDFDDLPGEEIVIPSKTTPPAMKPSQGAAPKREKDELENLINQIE
The assay is described as follows: Bocillin-FL fluorescence polarization competition binding, A. baumannii PBP1a. The conditions noted are these: fluorescence polarization competition binding assay using Bocillin-FL; read-out: A. baumannii PBP1a Potency. From the text:
To determine the ability of boronic acid-based test PBP inhibitors to bind Penicillin Binding Proteins (PBPs), Bocillin-FL (fluorescently-labeled penicillin V; ThermoFisher Scientific) was used in a fluorescence polarization (FP) competition binding assay to assess inhibitor binding to PBP3 from Escherichia coli (K-12), PBP3 from Pseudomonas aeruginosa (PAO1), PBP1a and PBP3 from Acinetobacter baumannii (ATCC 19606), and PBP2 from Neisseria gonorrhoeae (FA19). PBPs were cloned and purified as described previously (E. coli PBP3, King, D. T, et al., ACS Infectious Diseases 2015, 1, 175-184; P. aeruginosa PBP3, Han et. al., PNAS 2010, 107 (51), 22002-22007; A. baumannii PBPs, Penwell et. al., Antimicrob. Agents Chemother. 2015, 59 (3), 1680-1689; N. gonorrhoeae PBP2, Singh et. al., J. Biol. Chem. 2019, 294 (38), 14020-14032). To establish assay conditions for competition binding, enzyme titration/saturation binding experiments were initially performed. Bocillin-FL was prepared at 0.2 μM in a buffer comprised of 50 mM Hepes (pH 8.0), 300 mM NaCl and 10% (v/v) glycerol for reactions with E. coli, P. aeruginosa and N. gonorrhoeae PBPs, and 25 mM Tris (pH 8.0), 200 mM NaCl, 10% (v/v) glycerol and 0.005% (v/v) Tween 20 for reactions with A. baumannii PBPs. Saturation binding was performed by mixing 40 μl of PBP solutions ranging in concentrations from 0-24 μM with 40 μl of the 0.2 μM Bocillin-FL solution, in individual wells of a black 384-well microplate. FP was measured immediately upon mixing (Excitation, 490 nm; Emission, 520 nm; g-factor, 0.96), using a Cytation3 (BioTek) microplate reader and measured continuously for up to 120 minutes. The FP response stabilized after 15 minutes for P. aeruginosa and A. baumannii PBP3, 30 minutes for E. coli PBP3 and A. baumannii PBP1a, and less than 1 minute for N. gonorrhoeae PBP2. […] The competition binding assay (80 μl final volume) was validated using beta-lactams and PBPs at final concentrations of: 1.5 μM for E. coli PBP3; 0.75 μM for P. aeruginosa PBP3; 1 μM for A. baumannii PBP1a; 0.2 μM for A. baumannii PBP3; and 0.25 μM for N. gonorrhoeae PBP2. Bocillin-FL was at 0.1 μM (0.05 μM with A. baumannii PBP1a) and beta-lactam concentrations ranged from 0-1,000 μM. E. coli PBP3 was incubated with increasing concentrations of ampicillin in a black 384-well microplate (Corning) for 30 minutes. P. aeruginosa PBP3 was incubated for 15 minutes with aztreonam, whereas A. baumannii PBP1a and PBP3 were incubated for 15 minutes with meropenem, and then Bocillin-FL was added followed immediately by the FP measurement for up to 60 minutes. […] The beta-lactam potency was reported as the concentration of beta-lactam required to reduce the amount of PBP bound-Bocillin-FL by 50% (EC50). […] The EC50 of aztreonam was determined to be <0.5 μM for P. aeruginosa PBP3. […] Binding assays for boronic acid PBP inhibitors were performed in an identical fashion for the respective PBPs.

For another assay, the system named is P. aeruginosa ATCC 27853. The assay is described as follows: microbe, parasite or virus in culture. The conditions noted are these: Pseudomonas aeruginosa, ATCC27853, read-out: Minimum inhibitory concentration, P. aeruginosa ATCC 27853. The assay is classed as cell-based.
For assay [2], the system named is B. thailandensis ATCC 700388. The assay is described as follows: microbe, parasite or virus in culture. The assay is classed as cell-based. The conditions noted are these: Burkholderia thailandensis, ATCC700388, read-out: Minimum inhibitory concentration (MIC), B. thailandensis ATCC 700388.
For the next assay, the system named is P. aeruginosa ATCC 35151. The assay is described as follows: microbe, parasite or virus in culture. The assay is classed as cell-based. The following applies: Pseudomonas aeruginosa, ATCC35151, read-out: Minimum inhibitory concentration, P. aeruginosa ATCC 35151.
The next assay relates to A. baumannii CDC-0033. The assay is described as follows: microbe, parasite or virus in culture. Type of assay: cell-based. The following applies: Acinetobacter baumannii, CDC0033, read-out: MIC, A. baumannii CDC-0033.

Turning to `O=C(O)c1c(F)ccc2c1OB(O)[C@@H](NC(=O)C(NC(=O)N1CCN(Cc3ccc(O)c(O)c3Cl)C(=O)C1=O)c1ccc(P(=O)(O)O)c(F)c1)C2` (stereo partly drawn) [Example 23, (3R)-3-(2-(4-(2-chloro-3,4-dihydroxybenzyl)-2,3-dioxopiperazine-1-carboxamido)-2-(3-fluoro-4-phosphonophenyl)acetamido)-7-fluoro-2-hydroxy-3,4-dihydro-2H-benzo[e][1,2]oxaborinine-8-carboxylic acid], the MIC (in the assay with P. aeruginosa CDC-0054; with A. baumannii 1258916; in the assay with A. baumannii CDC-0045; in the assay with P. aeruginosa ATCC 27853; in assay [2]; in the assay on P. aeruginosa ATCC 35151) was less than 1 µg/mL throughout. For the same molecule, the MIC in the assay with A. baumannii CDC-0033 is less than 1 µg/mL. The IC50 in assay [1] is more than 250 µM.
For `O=C(O)c1cccc2c1OB(O)[C@@H](NC(=O)C(NC(=O)N1CCN(Cc3ccc(O)c(O)c3Cl)C(=O)C1=O)c1ccc(P(=O)(O)O)cc1)C2` (stereo partly drawn) [Example 24, (3R)-3-(2-(4-(2-chloro-3,4-dihydroxybenzyl)-2,3-dioxopiperazine-1-carboxamido)-2-(4-phosphonophenyl)acetamido)-2-hydroxy-3,4-dihydro-2H-benzo[e][1,2]oxaborinine-8-carboxylic acid], the MIC is less than 1 µg/mL in the assay on P. aeruginosa CDC-0054; less than 1 µg/mL in the assay on A. baumannii 1258916; less than 1 µg/mL with A. baumannii CDC-0045; 2 to 4 µg/mL (≈ 2.79 to 5.58 µM) with P. aeruginosa ATCC 27853; less than 1 µg/mL in assay [2]; less than 1 µg/mL with P. aeruginosa ATCC 35151. The MIC in the assay on A. baumannii CDC-0033 is less than 1 µg/mL. Moreover, the IC50 in assay [1] is more than 250 µM.
In the case of `O=C(O)c1c(F)ccc2c1OB(O)[C@@H](NC(=O)C(NC(=O)N1CCN(Cc3cc(F)c(O)c(O)c3Cl)C(=O)C1=O)c1ccc(P(=O)(O)O)cc1)C2` (stereo partly drawn) [Example 45, (3R)-3-(2-(4-(2-chloro-5-fluoro-3,4-dihydroxybenzyl)-2,3-dioxopiperazine-1-carboxamido)-2-(4-phosphonophenyl)acetamido)-7-fluoro-2-hydroxy-3,4-dihydro-2H-benzo[e][1,2]oxaborinine-8-carboxylic acid], the MIC (in the assay with P. aeruginosa CDC-0054; with A. baumannii 1258916; in the assay with A. baumannii CDC-0045; in the assay with P. aeruginosa ATCC 27853; in assay [2]; in the assay on P. aeruginosa ATCC 35151) was less than 1 µg/mL each time. For the same molecule, the MIC in the assay on A. baumannii CDC-0033 was less than 1 µg/mL. Further, the IC50 in assay [1] was more than 250 µM.
